Read-outs that look alike come from different tables or passages of the source.
Assays:
C57BL/6 mice = assay: Test of vasodilation in naive mice; assay type: in vivo; conditions: healthy mice, 800 μg/mouse i.p., after 30 and 60 min
ROCK II = target: T1, ROCK II (Homo sapiens, UniProt O75116); assay: ROCK inhibition by mobility shift assay, ROCK II; assay type: biochemical; conditions: ATP con. 5.3 μM
T1 construct: purchased Carna
Protocol: (§1) Staurosporine (Sigma) was used as positive control and saline was used as negative control.
(§2) DMSO (100 μl) was added to two empty wells for no compound control and no enzyme control in the same 96-well plate. Mobility shift assay was performed according to the manufacturer's protocol. […] The mixtures (5 μl) were incubated with 2.5× enzyme solution (10 μl) in 384-well plate at room temperature for 10 min and control was performed by adding 5 μl of kinase buffer.
(§3) Percentinhibition=max−conversion/max−min×100
(§4) where max stands for DMSO control; min stands for low control.

BV-2 microglia [1] = assay: Dendritic formation of BV-2 microglia (Image J); assay type: cell-based; conditions: for breakage of dendritic branches on BV-2 microglia: 75 and 200 μg/ml; for dendritic length of BV-2 microglia (mean): PBS control 2.94 μm, P<0.001
Protocol: (§5) The BV-2 immortalized microglial cell line was purchased from ShenKe Biological Technology Co. and cultured in Dulbecco's modified Eagle's medium (DMEM; Gibco), supplemented with 10% FBS (Gibco), 100 units/ml penicillin and 100 μg/ml streptomycin (Gibco) at 37°C in a humidified cell incubator under a 95%/5% (v/v) mixture of air and CO2. Cells were plated on a 96-well plate at a density of 1.0×10^6 /ml (200 μl/well), on a 24-well plate at 1.0×10^6/ml (500 μl/well) and at 0.2×10^6 /ml (500 μl/well) for different experiments.
(§6) Fluorescent photomicrographs of neurons with microtubule-associated protein-2 (MAP-2) staining or photomicrographs of BV-2 cells under inverted microscope were captured with a 20× objective and a digital camera of Olympus microscope. Images were acquired from randomly selected fields for each group. The length of the longest neurite outgrown or dendritic formation in the cell body was measured by an investigator blinded to the experimental groups using a public-domain image-processing program (Image J, http://rsb.info.nih.gov/ij). Average lengths of neuronal neurite or dendritic formation were used for quantification.

EAE in C57BL/6 mice [2] = system: EAE in C57BL/6 mice; design: method as in PMID 24749492; conditions: previous studies; cited from earlier work
primary neurons [3] = assay: LDH release cell death assay, primary neurons; assay type: cell-based; conditions: 24 h
Protocol: (§7) Embryonic 18-day-mouse cortex (Shanghai SLAC Laboratory Animal Co. Ltd) were dissected under a microscope and then triturated into the suspension in Neurobasal-A-medium (Gibco) supplemented with 2% B27 (Gibco), 100 units/ml penicillin and 100 μg/ml streptomycin (Gibco). The cells were then plated on cover slips coated with poly-D-lysine (0.1 mg/ml; Sigma) at a density of 1×10^6 cells per cm^2 at 37°C in a humidified cell incubator under a 95%/5% (v/v) mixture of air and CO2, with the cell media being replaced every 48 h. After 7 days, neurons were incubated with different conditioned medium.
(§8) The death of BV-2 microglia and primary neurons was measured by LDH release in the culture medium. Levels of LDH release in supernatants of cultured cells were measured using the cytotoxicity detection kit (Promega) according to the manufacturer's protocol. Maximum LDH release (A570) was determined following the treatment of cells with lysis buffer and considered as control value (100% LDH release). Data were expressed as a percentage of the control value.

EAE in C57BL/6 mice [4] = assay: Chronic EAE induced with MOG35-55, clinical score and body weight; assay type: in vivo, mouse; conditions: 800 μg/200 μl daily i.p., day 3 to 27 p.i.; for mean clinical score: EAE control 1.29±1.08, P<0.001; for maximum clinical score: EAE control 2.78; for body weight loss vs EAE mice: P<0.001
Protocol: Female C57BL/6 mice (8–10 weeks old and 18–20 g of body weight) were purchased from Vital River Laboratory Animal Technology Co. Ltd. All experiments were conducted in accordance with the guidelines of the International Council for Laboratory Animal Science. The study was approved by the Ethics Committee of Shanxi Datong University. […].
Mouse myelin oligodendrocyte glycoprotein peptide 35–55 (MOG35–55, MEVGW […]) was produced in an automatic synthesizer (CL. Bio-Scientific Company). The purity of the peptide was >95% as determined by HPLC. Chronic EAE was induced by subcutaneous immunization on the upper dorsal flanks with 300 μg of MOG35–55 in Freund's complete adjuvant (Sigma) supplemented with 3 mg/ml of M. Tuberculosis H37Ra (BD Difco; […]). Mice were injected intraperitoneally (i.p.) with 500 ng of pertussis toxin (Enzo Life Sciences) on days 0 and 2 post-immunization (p.i.). Animals were weighed and evaluated for clinical score every other day in a blinded fashion by at least two investigators. Clinical score of EAE was graded according to the following criteria: 0: healthy; 1: limp tail; 2: ataxia and/or paresis of hind limbs; 3: paralysis of hind limbs and/or paresis of forelimbs; 4: tetraparalysis; and 5: moribund or death. When the clinical score of EAE reaches 3, we give suitable care including softening of food with water in dish and additional nutrients such as egg, making mice easy to obtain food and nutrition.
Mice were divided into three groups: Fasudil-treated group (n=8), FSD-C10-treated group (n=8) and double-distilled water (ddH2O) EAE control group (n=9). […] Mice were i.p. injected with 800 μg/200 μl/daily from day 3 to day 27 p.i. Mice that received the same volume of ddH2O i.p. served as control.

[5] = system: BDNF, GDNF, NT-3, Nogo protein in brain; assay: Western blot of neurotrophic factors and Nogo in brain of EAE mice; assay type: in vivo, mouse; conditions: day 28 p.i., vs control EAE mice; for expression of BDNF protein in brain / expression of GDNF protein in brain / expression of NT-3 protein in brain: P<0.05
Protocol: (§9) Mice were divided into three groups: Fasudil-treated group (n=8), FSD-C10-treated group (n=8) and double-distilled water (ddH2O) EAE control group (n=9). […] Mice were i.p. injected with 800 μg/200 μl/daily from day 3 to day 27 p.i. Mice that received the same volume of ddH2O i.p. served as control. Protein from brains was homogenized on ice with an extraction kit and protein concentration was determined by a Bradford protein assay. Protein extracts (30 μg) were separated by SDS/PAGE and transferred on to a PVDF membrane (Immobilon-P; Millipore Corp.). The membranes were then incubated with anti-GDNF (glial cell line-derived neurotrophic factor; 1:1000, Epitomics), anti-BDNF (brain-derived neurotrophic factor; 1:1000, Promega), anti-NT-3(neurotrophin-3; 1:1000, Epitomics), anti-Nogo(1:1000, Epitomics), anti-iNOS (inducible nitric oxide synthase) (1:1000, Cell Signaling Technology) […], anti-arginase-1 ([…]) (1:1000, BD Bioscience) and anti-β-actin (1:10000, Cell Signaling Technology) for overnight at 4°C. Bands were visualized by horseradish peroxidase (HRP-) conjugated secondary antibodies and ECL kit under ECL system (GE Healthcare Life Sciences).

primary neurons [6] = assay: MTT cell viability assay, primary neurons; assay type: cell-based, mouse; conditions: 24 h
Protocol: as §7
(§10) Cell viability of BV-2 microglia and primary neurons was detected by MTT assay. In brief, 100 μl of MTT solution (0.5 mg ml^−1, Duchefa) was added to cultured cells and incubated for an additional 4 h at 37°C, until the medium turned purple. Absorbance at 570 nm was measured by a microplate reader after addition of 100 μl DMSO. Each experiment was performed in triplicate and repeated three times with separate cell preparations. Results were expressed as a percentage of the control value at 570 nm.

BV-2 microglia [7] = assay: MTT cell viability assay, BV-2 microglia; assay type: cell-based; conditions: 24 h
Protocol: as §5, §10

primary neurons [8] = assay: Neurite outgrowth of primary neurons (MAP-2 staining, Image J); assay type: cell-based, mouse; conditions: PBS control 4.1 μm; P<0.01
Protocol: as §7, §6

ROCK I = target: T2, ROCK I (Homo sapiens, UniProt Q13464); assay: ROCK inhibition by mobility shift assay, ROCK I; assay type: biochemical; conditions: ATP con. 3.6 μM
T2 construct: purchased Carna
T2 sequence (Q13464 whole entry): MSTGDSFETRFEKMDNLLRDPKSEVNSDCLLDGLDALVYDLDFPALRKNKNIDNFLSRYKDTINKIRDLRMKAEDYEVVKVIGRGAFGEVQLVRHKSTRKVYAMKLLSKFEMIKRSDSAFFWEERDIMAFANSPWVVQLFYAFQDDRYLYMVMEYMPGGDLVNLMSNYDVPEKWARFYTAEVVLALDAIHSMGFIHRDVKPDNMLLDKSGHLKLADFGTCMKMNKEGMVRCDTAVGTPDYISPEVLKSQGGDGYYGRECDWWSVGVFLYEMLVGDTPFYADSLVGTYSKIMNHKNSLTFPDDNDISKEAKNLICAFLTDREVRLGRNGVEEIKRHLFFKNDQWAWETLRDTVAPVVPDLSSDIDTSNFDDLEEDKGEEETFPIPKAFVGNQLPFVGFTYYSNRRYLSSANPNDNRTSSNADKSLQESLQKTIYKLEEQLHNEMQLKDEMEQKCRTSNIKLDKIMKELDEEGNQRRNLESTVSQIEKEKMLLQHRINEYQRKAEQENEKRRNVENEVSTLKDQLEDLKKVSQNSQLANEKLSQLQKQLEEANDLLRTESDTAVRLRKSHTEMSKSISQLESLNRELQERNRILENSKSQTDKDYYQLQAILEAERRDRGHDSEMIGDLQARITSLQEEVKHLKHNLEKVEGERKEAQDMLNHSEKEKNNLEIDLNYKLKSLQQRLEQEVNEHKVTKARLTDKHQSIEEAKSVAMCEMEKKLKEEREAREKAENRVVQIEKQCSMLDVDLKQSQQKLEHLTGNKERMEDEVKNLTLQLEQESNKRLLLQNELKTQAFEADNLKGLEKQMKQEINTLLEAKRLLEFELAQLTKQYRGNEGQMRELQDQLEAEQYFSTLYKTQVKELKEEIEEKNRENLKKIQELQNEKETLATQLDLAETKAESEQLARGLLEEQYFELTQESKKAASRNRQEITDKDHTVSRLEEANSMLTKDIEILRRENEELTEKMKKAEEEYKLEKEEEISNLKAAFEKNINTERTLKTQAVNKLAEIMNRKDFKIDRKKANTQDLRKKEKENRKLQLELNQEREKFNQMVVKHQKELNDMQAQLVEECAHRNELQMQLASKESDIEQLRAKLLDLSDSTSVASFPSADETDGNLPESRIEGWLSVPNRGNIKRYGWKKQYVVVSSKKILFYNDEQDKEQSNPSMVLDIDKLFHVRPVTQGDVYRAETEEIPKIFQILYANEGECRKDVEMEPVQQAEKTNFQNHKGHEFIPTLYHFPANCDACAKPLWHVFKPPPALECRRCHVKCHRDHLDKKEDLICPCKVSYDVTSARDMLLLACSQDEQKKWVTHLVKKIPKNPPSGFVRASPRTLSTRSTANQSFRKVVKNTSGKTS
Protocol: as §1, §2, §3, §4

BV-2 microglia [9] = assay: LDH release cell death assay and morphology, BV-2 microglia; assay type: cell-based; conditions: for BV-2 microglia cell death / morphology: 75 μg/ml and 200 μg/ml, 48 h culture; for death of BV-2 microglia (LDH release): 24 h
Protocol: as §5, §8

[10] = system: iNOS and Arg-1 expression in brain; assay: Western blot of iNOS and Arg-1 in brain of EAE mice (M1/M2 polarization); assay type: in vivo, mouse; conditions: day 28 p.i.
Protocol: as §9

mice = assay type: in vivo; conditions: within 2 h
Protocol: […]. […] Given that FSD-C10 was well tolerant in vivo, further pre-clinical studies are valuable for the treatment of MS.
[…]. […] TEXT PRINTED IN THE PICTURE: (b) Fasudi: Mortality (%): 0% (800 μg /mouse/day); Mortality (%): 33% (1600 μg /mouse/day); Mortality (%): 67% (2000 μg /mouse/day) | (b) FSD-C10: Mortality (%): 0% (800 μg /mouse/day); Mortality (%): 0% (1600 μg /mouse/day); Mortality (%): 0% (2000 μg /mouse/day)

T1 sequence (O75116 whole entry): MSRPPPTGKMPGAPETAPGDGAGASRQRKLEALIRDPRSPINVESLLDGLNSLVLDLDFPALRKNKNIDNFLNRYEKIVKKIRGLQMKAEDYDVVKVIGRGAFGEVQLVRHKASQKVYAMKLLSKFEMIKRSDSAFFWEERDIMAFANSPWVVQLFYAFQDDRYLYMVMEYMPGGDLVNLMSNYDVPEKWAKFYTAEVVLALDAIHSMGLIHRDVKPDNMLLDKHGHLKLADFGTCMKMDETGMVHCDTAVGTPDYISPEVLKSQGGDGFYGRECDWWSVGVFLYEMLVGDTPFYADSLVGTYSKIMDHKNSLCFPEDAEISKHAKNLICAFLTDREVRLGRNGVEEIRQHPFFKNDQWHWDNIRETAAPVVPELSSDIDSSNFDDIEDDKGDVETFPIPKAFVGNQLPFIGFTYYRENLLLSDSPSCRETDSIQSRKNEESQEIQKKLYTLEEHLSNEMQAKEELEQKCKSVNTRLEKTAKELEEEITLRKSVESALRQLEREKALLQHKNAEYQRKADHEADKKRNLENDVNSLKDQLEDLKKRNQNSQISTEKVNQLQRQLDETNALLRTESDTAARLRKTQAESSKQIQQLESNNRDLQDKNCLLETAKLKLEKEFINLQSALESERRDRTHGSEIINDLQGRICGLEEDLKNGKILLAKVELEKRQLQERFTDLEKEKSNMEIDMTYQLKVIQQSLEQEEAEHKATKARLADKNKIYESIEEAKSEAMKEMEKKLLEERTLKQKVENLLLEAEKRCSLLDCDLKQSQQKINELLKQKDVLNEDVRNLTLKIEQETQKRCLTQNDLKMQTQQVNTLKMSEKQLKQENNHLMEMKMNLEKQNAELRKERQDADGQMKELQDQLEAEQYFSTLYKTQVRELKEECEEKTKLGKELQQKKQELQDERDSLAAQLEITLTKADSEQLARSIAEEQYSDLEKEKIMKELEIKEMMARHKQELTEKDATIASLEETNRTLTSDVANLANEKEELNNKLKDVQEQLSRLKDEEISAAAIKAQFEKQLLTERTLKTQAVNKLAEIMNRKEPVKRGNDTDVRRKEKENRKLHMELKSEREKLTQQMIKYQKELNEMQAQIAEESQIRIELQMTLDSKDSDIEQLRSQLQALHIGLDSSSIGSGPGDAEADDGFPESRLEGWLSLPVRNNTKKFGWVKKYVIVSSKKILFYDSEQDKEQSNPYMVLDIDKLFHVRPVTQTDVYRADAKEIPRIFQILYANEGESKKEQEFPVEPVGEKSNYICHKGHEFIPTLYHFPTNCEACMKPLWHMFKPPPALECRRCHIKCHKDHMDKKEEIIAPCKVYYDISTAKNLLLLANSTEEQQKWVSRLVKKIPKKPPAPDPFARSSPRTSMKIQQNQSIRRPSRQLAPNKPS

Row | Structure (SMILES) | vasodilation on the foot of mice (C57BL/6 mice) | breakage of dendritic branches on BV-2 microglia (BV-2 microglia [1]) | dendritic length of BV-2 microglia (mean) (BV-2 microglia [1]) | death of primary neurons (LDH release) (primary neurons [3]; 0.6–15 μg/ml) | mean clinical score (EAE in C57BL/6 mice [4]) | maximum clinical score (EAE in C57BL/6 mice [4]) | body weight loss vs EAE mice (EAE in C57BL/6 mice [4]) | expression of Nogo protein in brain [5] | expression of BDNF protein in brain [5] | expression of GDNF protein in brain [5] | expression of NT-3 protein in brain [5] | viability of primary neurons (MTT) (primary neurons [6]; 75 μg/ml, vs control) | viability of primary neurons (MTT) (primary neurons [6]; 0.6–15 μg/ml) | viability of BV-2 microglia (MTT) (BV-2 microglia [7]; 75 μg/ml, vs control) | viability of BV-2 microglia (MTT) (BV-2 microglia [7]; 0.6–15 μg/ml) | neurite length of primary neurons (mean) (primary neurons [8]) | BV-2 microglia cell death / morphology (BV-2 microglia [9]) | death of BV-2 microglia (LDH release) (BV-2 microglia [9]; 0.6–15 μg/ml) | Arg-1 expression in brain [10] | iNOS expression in brain [10] | other results
1 | O=S(=O)(c1cccc2cnccc12)N1CCC[C@H]1CCl [FSD-C10] | relatively weak vasodilator effect | did not cause significant breakage | 12.5 μm | did not influence | 0.28±0.23 | 0.50 | less body weight loss | slightly, although not significantly, declined | significantly enhanced | significantly enhanced | significantly enhanced | did not lead to significant decrease | did not influence | did not lead to significant decrease | did not influence | 10.5 μm | good cell morphology | did not influence | elevated | inhibited | IC50 (ROCK II): 711 nM; clinical severity of EAE (EAE in C57BL/6 mice [2]): ameliorated; death of primary neurons (LDH release) (primary neurons [3]; 75 μg/ml, vs control): did not lead to significant decrease; IC50 (ROCK I): 1140 nM; death of BV-2 microglia (LDH release) (BV-2 microglia [9]; 75 μg/ml, vs control): did not lead to significant decrease; BV-2 cell death at higher doses with the extension of time (BV-2 microglia [9]; ≥200 μg/ml, result not shown): caused cell death
2 | Cl.O=S(=O)(c1cccc2cnccc12)N1CCCNCC1 [Fasudil, hexahydro-1-(5-isoquinolinyl-sulfonyl)-1H-1,4-diazepine monohydrochloride, reference compound] | obvious vasodilation | caused significant breakage | 12.5 μm | did not influence | 0.04±0.07 | 0.19 | less body weight loss | slightly, although not significantly, declined | significantly enhanced | significantly enhanced | significantly enhanced | significant decrease | did not influence | significant decrease | did not influence | 6.6 μm | obvious cell death | did not influence | elevated | inhibited | Mortality (%) (mice; 800 μg/mouse i.p.): 0%; Mortality (%) (mice; 1600 μg/mouse i.p.): 33%; Mortality (%) (mice; 2000 μg/mouse i.p.): 67%

Source: paper PMC4721545 (Bioscience Reports, 2015)
